From PubChem BioAssay AID256 (DTP/NCI, 2004)
Values joined by “and” are separate entries in the source; they are usually repeats but may differ in a detail not shown here. Identical values can stand only once. Inconclusive results and toxic doses are left out.

Test system: CD2F1 mice, L1210 leukemia ip, survival T/C
Assay: NCI In Vivo Anticancer Drug Screen. Data for tumor model L1210 Leukemia (intraperitoneal) in CD2F1 (CDF1) mice
Conditions: higher = longer survival
Summary of the method: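 In this screen, transplantable tumors were grown in mice given either the compound or its vehicle. Results were expressed as the treated measurement relative to the control measurement.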

[1] = endpoint: mean survival time, dose: 50.0 mg/kg/injection, schedule: Q01DX009 (ip), vehicle: saline
[2] = endpoint: mean survival time, dose: 100.0 mg/kg/injection, schedule: Q01DX009 (ip), vehicle: saline
[3] = endpoint: mean survival time, dose: 200.0 mg/kg/injection, schedule: Q01DX009 (ip), vehicle: saline
[4] = endpoint: mean survival time, dose: 100.0 mg/kg/injection, schedule: Q01DX009 (ip), vehicle: saline with Tween-80
[5] = endpoint: mean survival time, dose: 100.0 mg/kg/injection, schedule: Q04DX003 (ip), vehicle: saline with Tween-80
[6] = endpoint: mean survival time, dose: 200.0 mg/kg/injection, schedule: Q01DX009 (ip), vehicle: saline with Tween-80
[7] = endpoint: mean survival time, dose: 200.0 mg/kg/injection, schedule: Q04DX003 (ip), vehicle: saline with Tween-80
[8] = endpoint: mean survival time, dose: 400.0 mg/kg/injection, schedule: Q01DX009 (ip), vehicle: saline with Tween-80
[9] = endpoint: mean survival time, dose: 400.0 mg/kg/injection, schedule: Q04DX003 (ip), vehicle: saline with Tween-80
[10] = endpoint: mean survival time, dose: 75.0 mg/kg/injection, schedule: Q01DX001 (ip), vehicle: saline
[11] = endpoint: mean survival time, dose: 50.0 mg/kg/injection, schedule: Q04DX002 (ip), vehicle: saline
[12] = endpoint: mean survival time, dose: 100.0 mg/kg/injection, schedule: Q04DX002 (ip), vehicle: saline
[13] = endpoint: mean survival time, dose: 200.0 mg/kg/injection, schedule: Q04DX002 (ip), vehicle: saline

For `C[C@@]12C(=O)OC(=O)[C@]1(C)[C@H]1CC[C@@H]2O1`, the T/C (endpoint: median survival time, dose: 0.06 mg/kg/injection, schedule: Q01DX009 (ip), vehicle: Klucel (hydroxypropylcellulose) (HPC)) was 110 % of control, the T/C (endpoint: median survival time, dose: 0.12 mg/kg/injection, schedule: Q01DX009 (ip), vehicle: Klucel (hydroxypropylcellulose) (HPC)) was 102 % of control and the T/C (endpoint: median survival time, dose: 0.25 mg/kg/injection, schedule: Q01DX009 (ip), vehicle: Klucel (hydroxypropylcellulose) (HPC)) was 103 % of control. The T/C (endpoint: median survival time, dose: 0.5 mg/kg/injection, schedule: Q01DX009 (ip), vehicle: Klucel (hydroxypropylcellulose) (HPC)) was 104 % of control and the T/C (endpoint: median survival time, dose: 1.0 mg/kg/injection, schedule: Q01DX009 (ip), vehicle: Klucel (hydroxypropylcellulose) (HPC)) was 92 % of control.
`CC(=O)N(C)O` was tested, and the T/C (endpoint: median survival time, dose: 12.5 mg/kg/injection, schedule: Q01DX009 (ip), vehicle: saline with Tween-80) was 102 % of control, the T/C (endpoint: median survival time, dose: 25.0 mg/kg/injection, schedule: Q01DX009 (ip), vehicle: saline with Tween-80) was 102 % of control and 103 % of control and the T/C (endpoint: median survival time, dose: 50.0 mg/kg/injection, schedule: Q01DX009 (ip), vehicle: saline with Tween-80) was 102 % of control and 103 % of control. For the same compound, the T/C (endpoint: median survival time, dose: 100.0 mg/kg/injection, schedule: Q01DX009 (ip), vehicle: saline with Tween-80) was 106 % of control, the T/C (endpoint: median survival time, dose: 200.0 mg/kg/injection, schedule: Q01DX009 (ip), vehicle: saline with Tween-80) was 156 % of control and the T/C (endpoint: median survival time, dose: 400.0 mg/kg/injection, schedule: Q01DX009 (ip), vehicle: saline with Tween-80) was 176 % of control.
In the case of `[O-][n+]1cccc(CCc2ccc[n+]([O-])c2)c1`, the T/C [1] was 100 % of control, the T/C [2] was 104 % of control and the T/C [3] was 100 % of control.
In the case of `O=c1[nH]c(=O)n(C2OC(CO)C(O)C2O)o1` (stereo not drawn), the T/C (endpoint: mean survival time, dose: 12.5 mg/kg/injection, schedule: Q01DX005 (ip), vehicle: water) was 93 % of control, the T/C (endpoint: mean survival time, dose: 25.0 mg/kg/injection, schedule: Q01DX005 (ip), vehicle: water) was 101 % of control and the T/C (endpoint: mean survival time, dose: 50.0 mg/kg/injection, schedule: Q01DX005 (ip), vehicle: water) was 90 % of control. The T/C (endpoint: mean survival time, dose: 100.0 mg/kg/injection, schedule: Q01DX005 (ip), vehicle: water) was 98 % of control and the T/C (endpoint: mean survival time, dose: 200.0 mg/kg/injection, schedule: Q01DX005 (ip), vehicle: water) was 96 % of control.
For `CC(C)(C)c1ccc(SCC#CCOc2ccc(Cl)cc2)cc1`, the T/C [4] was 95 % of control, the T/C [5] was 95 % of control and the T/C [6] was 91 % of control. For the same compound, the T/C [7] was 96 % of control, the T/C [8] was 88 % of control and the T/C [9] was 87 % of control.
With `Nc1nc(F)nc2c1ncn2C1CC(O)C(CO)O1` (stereo not drawn) the T/C [10] was 105 % of control, the T/C (endpoint: mean survival time, dose: 100.0 mg/kg/injection, schedule: Q01DX001 (ip), vehicle: other) was 113 % of control and the T/C (endpoint: mean survival time, dose: 150.0 mg/kg/injection, schedule: Q01DX001 (ip), vehicle: saline) was 109 % of control. The T/C (endpoint: mean survival time, dose: 200.0 mg/kg/injection, schedule: Q01DX001 (ip), vehicle: other) was 110 % of control, the T/C (endpoint: mean survival time, dose: 400.0 mg/kg/injection, schedule: Q01DX001 (ip), vehicle: other) was 107 % of control and the T/C (endpoint: median survival time, dose: 25.0 mg/kg/injection, schedule: Q03HX024 (ip), vehicle: saline with Tween-80) was 219 % of control. For the same compound, the T/C (endpoint: median survival time, dose: 30.0 mg/kg/injection, schedule: Q03HX024 (ip), vehicle: saline with Tween-80) was 234 % of control, the T/C (endpoint: median survival time, dose: 30.0 mg/kg/injection, schedule: Q03HX024 (ip), vehicle: saline) was 211 % of control and the T/C (endpoint: median survival time, dose: 35.0 mg/kg/injection, schedule: Q03HX024 (ip), vehicle: saline with Tween-80) was 250 % of control. For the same compound, the T/C (endpoint: median survival time, dose: 40.0 mg/kg/injection, schedule: Q03HX024 (ip), vehicle: saline with Tween-80) was 158 % of control and the T/C (endpoint: median survival time, dose: 40.0 mg/kg/injection, schedule: Q03HX024 (ip), vehicle: saline) was 227 % of control.
`CSc1cc(C)c(O)c(C)c1` was tested, and the T/C [5] was 100 % of control, the T/C [7] was 104 % of control and the T/C [9] was 102 % of control.
In the case of `CCOC(=O)C(Cc1ccc(CC(NC(C)=O)(C(=O)OCC)C(=O)OCC)cc1)(NC(C)=O)C(=O)OCC`, the T/C (endpoint: mean survival time, dose: 12.5 mg/kg/injection, schedule: Q01DX009 (ip), vehicle: other) was 96 % of control, the T/C (endpoint: mean survival time, dose: 25.0 mg/kg/injection, schedule: Q01DX009 (ip), vehicle: other) was 94 % of control and the T/C (endpoint: mean survival time, dose: 50.0 mg/kg/injection, schedule: Q01DX009 (ip), vehicle: other) was 97 % of control. For the same compound, the T/C (endpoint: mean survival time, dose: 100.0 mg/kg/injection, schedule: Q01DX009 (ip), vehicle: other) was 91 % of control and the T/C (endpoint: mean survival time, dose: 200.0 mg/kg/injection, schedule: Q01DX009 (ip), vehicle: other) was 92 % of control.
In the case of `C1CC[N-]CC1.C1CC[N-]CC1.[Cl][Rh]([Cl])[Cl]`, the T/C (endpoint: mean survival time, dose: 12.5 mg/kg/injection, schedule: Q01DX009 (ip), vehicle: saline with Tween-80) was 90 % of control, the T/C (endpoint: mean survival time, dose: 25.0 mg/kg/injection, schedule: Q01DX009 (ip), vehicle: saline with Tween-80) was 98 % of control and the T/C (endpoint: mean survival time, dose: 50.0 mg/kg/injection, schedule: Q01DX009 (ip), vehicle: saline with Tween-80) was 100 % of control. The T/C [4] was 94 % of control and the T/C [6] was 96 % of control.
`O=C(Nc1ccccc1Cl)c1ccccc1CC(O)(c1ccccc1)c1ccccc1` was tested, and the T/C (endpoint: mean survival time, dose: 100.0 mg/kg/injection, schedule: Q01DX001 (ip), vehicle: saline sonified) was 102 % of control, the T/C (endpoint: mean survival time, dose: 200.0 mg/kg/injection, schedule: Q01DX001 (ip), vehicle: saline sonified) was 109 % of control and the T/C (endpoint: mean survival time, dose: 400.0 mg/kg/injection, schedule: Q01DX001 (ip), vehicle: saline sonified) was 86 % of control.
For `CCC(C)(C[NH-])C[NH-].[Cl][Pt+2][Cl]`, the T/C (endpoint: mean survival time, dose: 1.56 mg/kg/injection, schedule: Q04DX003 (ip), vehicle: saline) was 114 % of control, the T/C (endpoint: mean survival time, dose: 3.12 mg/kg/injection, schedule: Q04DX003 (ip), vehicle: saline) was 118 % of control and the T/C (endpoint: mean survival time, dose: 6.25 mg/kg/injection, schedule: Q04DX003 (ip), vehicle: saline) was 124 % of control. For the same compound, the T/C (endpoint: mean survival time, dose: 12.5 mg/kg/injection, schedule: Q04DX003 (ip), vehicle: saline with Tween-80) was 285 % of control and the T/C (endpoint: mean survival time, dose: 25.0 mg/kg/injection, schedule: Q04DX003 (ip), vehicle: saline) was 312 % of control.
For `NC(=O)c1c[n+](Cc2ccccc2)ccn1`, the T/C [10] was 104 % of control.
In the case of `NC(CSC(c1ccccc1)(c1ccccc1)c1cccc2ccccc12)C(=O)O` (stereo not drawn), the T/C (endpoint: mean survival time, dose: 25.0 mg/kg/injection, schedule: Q01DX009 (ip), vehicle: saline) was 100 % of control, the T/C [1] was 100 % of control and the T/C [2] was 110 % of control. For the same compound, the T/C [3] was 102 % of control.
With `C=C1C(=O)OC2CC(C)C3C=CC(=O)C3CC12` (stereo not drawn) the T/C (endpoint: mean survival time, dose: 0.5 mg/kg/injection, schedule: Q01DX009 (ip), vehicle: Klucel (hydroxypropylcellulose) (HPC)) was 106 % of control, the T/C (endpoint: mean survival time, dose: 1.0 mg/kg/injection, schedule: Q01DX009 (ip), vehicle: Klucel (hydroxypropylcellulose) (HPC)) was 102 % of control and the T/C (endpoint: mean survival time, dose: 18.75 mg/kg/injection, schedule: Q01DX009 (ip), vehicle: Klucel (hydroxypropylcellulose) (HPC)) was 105 % of control.
In the case of `O=[N+]([O-])c1ccc(C2N(Cc3ccc(Cl)cc3)CCN2Cc2ccc(Cl)cc2)cc1`, the T/C (endpoint: mean survival time, dose: 100.0 mg/kg/injection, schedule: Q01DX001 (ip), vehicle: saline with Tween-80) was 92 % of control, the T/C [4] was 95 % of control and the T/C [5] was 98 % of control. For the same compound, the T/C (endpoint: mean survival time, dose: 200.0 mg/kg/injection, schedule: Q01DX001 (ip), vehicle: saline with Tween-80) was 96 % of control, the T/C [6] was 88 % of control and the T/C [7] was 98 % of control. The T/C (endpoint: mean survival time, dose: 400.0 mg/kg/injection, schedule: Q01DX001 (ip), vehicle: saline with Tween-80) was 93 % of control, the T/C [8] was 91 % of control and the T/C [9] was 90 % of control.
With `Nc1nc(N)c(NC=O)c(N)n1` the T/C (endpoint: mean survival time, dose: 12.5 mg/kg/injection, schedule: Q01DX009 (ip), vehicle: water) was 101 % of control, the T/C (endpoint: mean survival time, dose: 25.0 mg/kg/injection, schedule: Q01DX009 (ip), vehicle: water) was 101 % of control and the T/C (endpoint: mean survival time, dose: 50.0 mg/kg/injection, schedule: Q01DX009 (ip), vehicle: water) was 106 % of control. For the same compound, the T/C (endpoint: mean survival time, dose: 100.0 mg/kg/injection, schedule: Q01DX009 (ip), vehicle: water) was 103 % of control and the T/C (endpoint: mean survival time, dose: 200.0 mg/kg/injection, schedule: Q01DX009 (ip), vehicle: water) was 103 % of control.
For `NC(=O)N(CCO)CCO`, the T/C [2] was 111 % of control, the T/C [3] was 107 % of control and the T/C (endpoint: mean survival time, dose: 400.0 mg/kg/injection, schedule: Q01DX009 (ip), vehicle: saline) was 101 % of control.
In the case of `O=S(=O)(O)c1ccc(/C2=c3\cc/c([n-]3)=C(\c3ccc(S(=O)(=O)O)cc3)c3ccc([n-]3)/C(c3ccc(S(=O)(=O)O)cc3)=c3/cc/c([n-]3)=C(\c3ccc(S(=O)(=O)O)cc3)c3ccc2[n-]3)cc1.[Co]`, the T/C [11] was 104 % of control, the T/C [12] was 101 % of control and the T/C [13] was 101 % of control.
In the case of `CC1CC(C(=O)O)C(S(N)(=O)=O)C1` (stereo not drawn), the T/C [11] was 97 % of control, the T/C [12] was 108 % of control and the T/C [13] was 108 % of control.
